From patent US6890955B2, “Aryloxypropanolamine derivatives, method of preparation and applications thereof” (Virbac SA, priority 1996, dated 2005)

melting point: 230 to 231 °C
SMILES: Oc1cccc(OCC(O)CNCc2ccc3c(c2)OCO3)c1 (stereo not shown) [Compound 1e, N-((1,3-Benzodioxol-5-yl)methyl)-2-hydroxy-3-(3-hydroxyphenoxy)propylamine]
